# Measured values: PubChem BioAssay (NCI)
#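 Cells were grown in 96-well plates and exposed to each compound for 48 hours at five concentrations; endpoints were interpolated linearly between bracketing concentrations, or set to the highest concentration if not reached. GI50 marks 50% less growth. TGI is the concentration that stops growth completely.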
# Columns and labels:
# Experiment in all cases: NCI-60 cell line screen, 48 h
# SK-MEL-5 melanoma = system: SK-MEL-5 melanoma
# COLO 205 colon = system: COLO 205 colon
# BT-549 breast = system: BT-549 breast
# T-47D breast = system: T-47D breast
# RXF 393 renal = system: RXF 393 renal
# EKVX NSCLC = system: EKVX NSCLC
# HOP-92 NSCLC = system: HOP-92 NSCLC
# M14 melanoma = system: M14 melanoma
# K-562 leukemia = system: K-562 leukemia
# UO-31 renal = system: UO-31 renal
# UACC-62 melanoma = system: UACC-62 melanoma
# A549 NSCLC = system: A549 NSCLC
# PC-3 prostate = system: PC-3 prostate
# ACHN renal = system: ACHN renal
# MCF7 breast = system: MCF7 breast
# DU-145 prostate = system: DU-145 prostate
# 786-0 renal = system: 786-0 renal
# MALME-3M melanoma = system: MALME-3M melanoma
# HOP-62 NSCLC = system: HOP-62 NSCLC
# HCT-15 colon = system: HCT-15 colon
# TK-10 renal = system: TK-10 renal
# SK-OV-3 ovarian = system: SK-OV-3 ovarian
# CAKI-1 renal = system: CAKI-1 renal
# OVCAR-5 ovarian = system: OVCAR-5 ovarian
# HCC-2998 colon = system: HCC-2998 colon
# CCRF-CEM leukemia = system: CCRF-CEM leukemia
# U251 CNS = system: U251 CNS
# HL-60(TB) leukemia = system: HL-60(TB) leukemia
# SN12C renal = system: SN12C renal
# OVCAR-8 ovarian = system: OVCAR-8 ovarian
# SR leukemia = system: SR leukemia
# SK-MEL-2 melanoma = system: SK-MEL-2 melanoma
# OVCAR-3 ovarian = system: OVCAR-3 ovarian
# A498 renal = system: A498 renal
# IGROV1 ovarian = system: IGROV1 ovarian
# UACC-257 melanoma = system: UACC-257 melanoma
# SNB-19 CNS = system: SNB-19 CNS
# HS 578T breast = system: HS 578T breast
# MDA-MB-231 breast = system: MDA-MB-231 breast
# OVCAR-4 ovarian = system: OVCAR-4 ovarian
# SF-539 CNS = system: SF-539 CNS
# KM12 colon = system: KM12 colon
# NCI-H23 lung = system: NCI-H23 lung
# NCI/ADR-RES ovarian = system: NCI/ADR-RES ovarian
# SW-620 colon = system: SW-620 colon
# RPMI-8226 leukemia = system: RPMI-8226 leukemia
# MOLT-4 leukemia = system: MOLT-4 leukemia
# LOX IMVI melanoma = system: LOX IMVI melanoma
# SF-295 CNS = system: SF-295 CNS
# SF-268 CNS = system: SF-268 CNS
# MDA-MB-435 = system: MDA-MB-435
# HCT-116 colon = system: HCT-116 colon
# NCI-H522 lung = system: NCI-H522 lung
# HT29 colon = system: HT29 colon
# SNB-75 CNS = system: SNB-75 CNS
# NCI-H460 lung = system: NCI-H460 lung
# SK-MEL-28 melanoma = system: SK-MEL-28 melanoma
# MDA-MB-468 breast = system: MDA-MB-468 breast
# NCI-H226 lung = system: NCI-H226 lung
structure (smiles),measurement,setting,value
CC[C@@]12CC(C(=O)OC)=C3Nc4cc5c(cc4[C@@]34CCN(C[C@H]3O[C@H]31)[C@@H]24)[C@@H]1[C@H](O5)[C@@H](O)[C@@]2(CC)CC(C(=O)OC)=C3Nc4cc(O)ccc4[C@@]34CCN1[C@@H]24,GI50,SK-MEL-5 melanoma,154 nM
same,TGI,SK-MEL-5 melanoma,958 nM
same,GI50,COLO 205 colon,158 nM
same,TGI,COLO 205 colon,2280 nM
same,GI50,BT-549 breast,370 nM
same,TGI,BT-549 breast,4050 nM
same,GI50,T-47D breast,143 nM
same,TGI,T-47D breast,10400 nM
same,GI50,RXF 393 renal,763 nM
same,TGI,RXF 393 renal,3890 nM
same,GI50,EKVX NSCLC,439 nM
same,TGI,EKVX NSCLC,16700 nM
same,GI50,HOP-92 NSCLC,127 nM
same,TGI,HOP-92 NSCLC,11000 nM
same,GI50,M14 melanoma,239 nM
same,TGI,M14 melanoma,19200 nM
same,GI50,K-562 leukemia,134 nM
same,TGI,K-562 leukemia,7900 nM
same,GI50,UO-31 renal,132 nM
same,TGI,UO-31 renal,6080 nM
same,GI50,UACC-62 melanoma,49.1 nM
same,TGI,UACC-62 melanoma,1170 nM
same,GI50,A549 NSCLC,381 nM
same,TGI,A549 NSCLC,11100 nM
same,GI50,PC-3 prostate,380 nM
same,TGI,PC-3 prostate,18800 nM
same,GI50,ACHN renal,363 nM
same,TGI,ACHN renal,12800 nM
same,GI50,MCF7 breast,45.2 nM
same,TGI,MCF7 breast,6010 nM
same,GI50,DU-145 prostate,1720 nM
same,TGI,DU-145 prostate,11500 nM
same,GI50,786-0 renal,188 nM
same,TGI,786-0 renal,10000 nM
same,GI50,MALME-3M melanoma,201 nM
same,TGI,MALME-3M melanoma,2640 nM
same,GI50,HOP-62 NSCLC,156 nM
same,TGI,HOP-62 NSCLC,7580 nM
same,GI50,HCT-15 colon,173 nM
same,TGI,HCT-15 colon,1800 nM
same,GI50,TK-10 renal,128 nM
same,TGI,TK-10 renal,3310 nM
same,GI50,SK-OV-3 ovarian,149 nM
same,TGI,SK-OV-3 ovarian,6220 nM
same,GI50,CAKI-1 renal,61.9 nM
same,TGI,CAKI-1 renal,6290 nM
same,GI50,OVCAR-5 ovarian,1330 nM
same,TGI,OVCAR-5 ovarian,15000 nM
same,GI50,HCC-2998 colon,145 nM
same,TGI,HCC-2998 colon,735 nM
same,GI50,CCRF-CEM leukemia,4380 nM
same,TGI,CCRF-CEM leukemia,56000 nM
same,GI50,U251 CNS,317 nM
same,TGI,U251 CNS,4770 nM
same,GI50,HL-60(TB) leukemia,35.1 nM
same,TGI,HL-60(TB) leukemia,295 nM
same,GI50,SN12C renal,439 nM
same,TGI,SN12C renal,10900 nM
same,GI50,OVCAR-8 ovarian,424 nM
same,TGI,OVCAR-8 ovarian,15700 nM
same,GI50,SR leukemia,79.3 nM
same,TGI,SR leukemia,7690 nM
same,GI50,SK-MEL-2 melanoma,876 nM
same,TGI,SK-MEL-2 melanoma,5270 nM
same,GI50,OVCAR-3 ovarian,221 nM
same,TGI,OVCAR-3 ovarian,3580 nM
same,GI50,A498 renal,269 nM
same,TGI,A498 renal,2560 nM
same,GI50,IGROV1 ovarian,254 nM
same,TGI,IGROV1 ovarian,2930 nM
same,GI50,UACC-257 melanoma,199 nM
same,TGI,UACC-257 melanoma,6890 nM
same,GI50,SNB-19 CNS,277 nM
same,TGI,SNB-19 CNS,9060 nM
same,GI50,HS 578T breast,105 nM
same,TGI,HS 578T breast,2860 nM
same,GI50,MDA-MB-231 breast,117 nM
same,TGI,MDA-MB-231 breast,1900 nM
same,GI50,OVCAR-4 ovarian,232 nM
same,TGI,OVCAR-4 ovarian,14700 nM
same,GI50,SF-539 CNS,322 nM
same,TGI,SF-539 CNS,11600 nM
same,GI50,KM12 colon,273 nM
same,TGI,KM12 colon,4520 nM
same,GI50,NCI-H23 lung,278 nM
same,TGI,NCI-H23 lung,2370 nM
same,GI50,NCI/ADR-RES ovarian,1110 nM
same,TGI,NCI/ADR-RES ovarian,3850 nM
same,GI50,SW-620 colon,530 nM
same,TGI,SW-620 colon,5250 nM
same,GI50,RPMI-8226 leukemia,109 nM
same,TGI,RPMI-8226 leukemia,13700 nM
same,GI50,MOLT-4 leukemia,768 nM
same,TGI,MOLT-4 leukemia,5320 nM
same,GI50,LOX IMVI melanoma,111 nM
same,TGI,LOX IMVI melanoma,542 nM
same,GI50,SF-295 CNS,330 nM
same,TGI,SF-295 CNS,12700 nM
same,GI50,SF-268 CNS,1300 nM
same,TGI,SF-268 CNS,13400 nM
same,GI50,MDA-MB-435,191 nM
same,TGI,MDA-MB-435,8940 nM
same,GI50,HCT-116 colon,199 nM
same,TGI,HCT-116 colon,1760 nM
same,GI50,NCI-H522 lung,51.5 nM
same,TGI,NCI-H522 lung,752 nM
same,GI50,HT29 colon,142 nM
same,TGI,HT29 colon,7450 nM
same,GI50,SNB-75 CNS,21.8 nM
same,TGI,SNB-75 CNS,1190 nM
same,GI50,NCI-H460 lung,441 nM
same,TGI,NCI-H460 lung,7570 nM
same,GI50,SK-MEL-28 melanoma,622 nM
same,TGI,SK-MEL-28 melanoma,15800 nM
same,GI50,MDA-MB-468 breast,55.3 nM
same,TGI,MDA-MB-468 breast,320 nM
same,GI50,NCI-H226 lung,157 nM
same,TGI,NCI-H226 lung,7000 nM
